The numbers were not newly measured in US6613244B2, “Ironing aid composition” (Unilever Home & Personal Care USA, division of Conopco, Inc., priority 2000, dated 2003), which cites them from elsewhere.

Each structure is given as a SMILES string.

For this series the following is noted: stated in words, related to ClogP.

Regarding `CC(=O)OC(c1ccccc1)C(Cl)(Cl)Cl` (stereo not shown) [rose acetate], the solubility in water result was “not easily soluble in water”.
